This data set can be described thus: RP, Waters ACQUITY Premier BEH C18, 100 × 2.1 mm, 1.7 µm, 40 °C, 0.3 to 0.4 mL/min, estimated dead time 0.73 min; A: water + 0.1% formic acid; B: acetonitrile + 0.1% formic acid; gradient (min/%B) 0/0.5 0.1/0.5 10/80 10.1/99.5 12/0.5 12.1/0.5 14.5/0.5. Conditions: stereoisomer not certain.
Turning to `CC(CCC(=O)NCCS(=O)(=O)O)C1CCC2C3CCC4CC(O)CCC4(C)C3CCC12C` (stereo unspecified) [LITHOCHOLYLTAURINE], the LC retention time was 7.55 min.

Take `Nc1ccn(C2OC(CO)C3OP(=O)(O)OC32)c(=O)n1` (stereo unspecified) [CYTIDINE 2',3'-CYCLIC PHOSPHATE]: the LC retention time is 0.94 min.

As for `CCCCCCCCCCCCC(O)C(=O)O` (stereo unspecified) [2-HYDROXYMYRISTIC ACID], the LC retention time is 8.3 min.

As for `Nc1nc2c(ncn2C2OC(CO)C(O)C2O)c(=O)[nH]1` (stereo unspecified) [GUANOSINE], the LC retention time was 3.37 min.

As for `O=C(O)c1ccc(CO)o1` [SUMIKI'S ACID], the LC retention time was 3.65 min.

On to `O=C(O)CCCCC(=O)O` [ADIPATE], for which the LC retention time was 3.99 min.

For `COc1cccc(OC)c1C(=O)O` [2,6-DIMETHOXYBENZOIC ACID], the LC retention time is 4.71 min.

Take `NC(=O)NCCC(=O)O` [UREIDOPROPIONATE]: the LC retention time was 1.27 min.

On to `O=C(O)C1CCCN1` (stereo unspecified) [PROLINE], for which the LC retention time is 0.916 min.

Regarding `Cn1c(=O)[nH]c2[nH]c(=O)n(C)c2c1=O` [1,7-DIMETHYLURIC ACID], the LC retention time is 2.39 min.

In the case of `CC=CC=CC(=O)O` [SORBATE], the LC retention time is 5.71 min.

For the compound `O=C(O)C=Cc1c[nH]c2ccccc12` [INDOLEACRYLIC ACID], the LC retention time was 5.61 min.

Turning to `COc1cc(CCC(=O)O)ccc1O` [DIHYDROFERULIC ACID], the LC retention time is 5.08 min.

Consider `O=CC(O)C(O)C(O)C(O)CO` (stereo not drawn) [ISTD_ D(+)-GLUCOSE-13C6], for which the LC retention time was 0.888 min.

`CCCCCCCCCC(=O)OC(CC(=O)[O-])C[N+](C)(C)C` (stereo unspecified) [DECANOYLCARNITINE]: the LC retention time is 6.92 min.

Regarding `CCCCCCC[C@@H](O)CC(=O)O` [(R)-3-HYDROXYDECANOIC ACID], the LC retention time is 7.09 min.

In the case of `CCCCCCCCCC(O)CC(=O)O` (stereo unspecified) [3-HYDROXYDODECANOIC ACID], the LC retention time is 7.65 min.

Take `Cc1cc(O)c2c(c1)C(=O)c1cc(O)cc(O)c1C2=O` [EMODIN]: the LC retention time is 7.52 min.

For `Nc1nc2c(ncn2C2OC3COP(=O)(O)OC3C2O)c(=O)[nH]1` (stereo unspecified) [CYCLIC GMP], the LC retention time is 3.35 min.

Consider `O=c1[nH]c(=O)c2ncn(C3OC(COP(=O)(O)O)C(O)C3O)c2[nH]1` (stereo unspecified) [XANTHOSINE-MONOPHOSPHATE], for which the LC retention time was 1.87 min.

For the compound `Cn1c(=O)[nH]c(=O)c2[nH]cnc21` [3-METHYLXANTHINE], the LC retention time was 1.3 min.

For the compound `O=C(O)CCCC(=O)C(=O)O` [OXOADIPATE], the LC retention time is 2.2 min.

`CSc1ncnc2nc[nH]c12` [THIOPURINE S-METHYLETHER]: the LC retention time is 4.31 min.

For `O=C(C=CC=Cc1ccc2c(c1)OCO2)N1CCCCC1` [PIPERINE], the LC retention time was 7.22 min.

Regarding `O=C(O)CCc1c[nH]c2ccccc12` [INDOLE-3-PROPIONIC ACID], the LC retention time is 6.22 min.

In the case of `Nc1ccn(C2CC(O)C(COP(=O)(O)O)O2)c(=O)n1` (stereo unspecified) [DEOXYCYTIDINE MONOPHOSPHATE], the LC retention time is 1.37 min.

In the case of `COC(=O)CCCN` [METHYL 4-AMINOBUTYRATE], the LC retention time is 1.4 min.

As to `COc1cc(C=CC(=O)O)cc(OC)c1O` [SINAPIC ACID], the LC retention time was 4.58 min.

With `CC(CCC(=O)O)C1CCC2C3CCC4CC(O)CCC4(C)C3CC(O)C12C` (stereo unspecified) [DEOXYCHOLATE], the LC retention time was 7.67 min.

As for `O=C(O)CCCCCCCCCCCCCCCO` [16-HYDROXY HEXADECANOIC ACID], the LC retention time is 7.82 min.

Take `CCCCCCCCCCCCCCCCCC(=O)NCCO` [STEAROYLETHANOLAMIDE]: the LC retention time was 9.74 min.

Take `C=Cc1c(C)c2cc3[nH]c(cc4nc(cc5nc(cc1[nH]2)C(C)=C5CCC(=O)O)C(CCC(=O)O)=C4C)c(C)c3C=C` [PROTOPORPHYRIN]: the LC retention time is 9.14 min.

In the case of `C=CCC(=NOS(=O)(=O)O)SC1OC(CO)C(O)C(O)C1O` (stereo unspecified) [SINIGRIN], the LC retention time was 2.03 min.

For the compound `Nc1ccn(C2OC(COP(=O)(O)O)C(O)C2O)c(=O)n1` (stereo unspecified) [CYTIDINE MONOPHOSPHATE], the LC retention time was 0.941 min.

Turning to `O=C(O)CNC(=O)CCc1ccccc1` [PHENYLPROPIONYLGLYCINE], the LC retention time is 4.84 min.

Regarding `CCC(C)C(=O)C(=O)O` (stereo unspecified) [3-METHYL-2-OXOVALERATE], the LC retention time is 4.42 min.

Turning to `Cc1cn(C2OC(CO)C(O)C2O)c(=O)[nH]c1=O` (stereo unspecified) [RIBOTHYMIDINE], the LC retention time was 1.24 min.

Regarding `COc1ccc(CC(=O)O)cc1OC` [HOMOVERATRIC ACID], the LC retention time is 5.34 min.

`C=CC1CN2CCC1CC2C(O)c1ccnc2ccc(OC)cc12` (stereo unspecified) [QUININE]: the LC retention time was 3.88 min.

`O=C(O)CCCCCCCCCCCC(=O)O` [1,11-UNDECANEDICARBOXYLATE]: the LC retention time is 7.11 min.

`O=[N+]([O-])c1ccc(O)cc1O` [2,4-DIHYDROXY-NITROPHENOL]: the LC retention time is 6.02 min.

Consider `COc1cc(C=CC(=O)O)cc(OC)c1OC` [3,4,5-TRIMETHOXYCINNAMIC ACID], for which the LC retention time is 5.7 min.

As to `O=C(O)C(O)c1ccc(O)c(O)c1` (stereo unspecified) [3,4 DIHYDROXYMANDELATE], the LC retention time was 1.62 min.

Take `O=C(O)CNC(=O)c1ccc(O)cc1` [4-HYDROXYHIPPURIC ACID]: the LC retention time was 2.42 min.

For `O=C(O)c1ccccc1C(=O)O` [PHTHALIC ACID], the LC retention time was 4.52 min.

With `O=C(O)CCc1ccccc1O` [3-(2-HYDROXYPHENYL)PROPANOATE], the LC retention time is 5.47 min.

Take `C[Se]CCC(N)C(=O)O` (stereo unspecified) [SELENOMETHIONINE]: the LC retention time was 1.09 min.

On to `Oc1cccc(O)c1O` [PYROGALLOL], for which the LC retention time was 2.89 min.

In the case of `CC1(C)OC2CC(=O)OCC23C1CC(=O)C1(C)C3CCC2(C)C(c3ccoc3)OC(=O)C3OC321` (stereo unspecified) [LIMONIN], the LC retention time was 6.87 min.

As to `CC(C(=O)O)c1ccc(O)cc1` (stereo unspecified) [4-HYDROXYPHENYL-2-PROPIONIC ACID], the LC retention time was 5.12 min.

`NC(=O)c1ncn(C2OC(CO)C(O)C2O)c1N` (stereo unspecified) [AICA-RIBOSIDE]: the LC retention time is 0.945 min.

`CCCC(=O)O` [BUTANOATE]: the LC retention time was 3.99 min.

As to `NC(CCS)C(=O)O` (stereo unspecified) [HOMOCYSTEINE], the LC retention time is 0.963 min.

Regarding `N[C@@H](Cc1cc(I)c(O)c(I)c1)C(=O)O` [3,5-DIIODO-L-TYROSINE], the LC retention time was 4.59 min.

For `COC(=O)C1=CCCN(C)C1` [ARECOLINE], the LC retention time is 1.02 min.

As for `CCCCCCCCCCCCCCC(O)C(=O)O` (stereo unspecified) [2-HYDROXYHEXADECANOIC ACID], the LC retention time was 8.98 min.

For the compound `Cn1cnc(=N)c2[nH]cnc21` [3-METHYLADENINE], the LC retention time was 0.904 min.

In the case of `O=C(O)Cc1cc(O)ccc1O` [HOMOGENTISATE], the LC retention time is 3.66 min.

As to `O=C(O)C[C@H](NC(=O)Cc1c[nH]c2ccccc12)C(=O)O` [L-N-(1H-INDOL-3-YLACETYL)ASPARTIC ACID], the LC retention time was 4.39 min.

Take `CCCCCCCCCCCCCC(O)CC(=O)O` (stereo unspecified) [3-HYDROXYHEXADECANOIC ACID]: the LC retention time was 8.7 min.

For `O=Cc1ccc(O)cc1` [4-HYDROXYBENZALDEHYDE], the LC retention time was 4.88 min.
